These results are taken from PubChem BioAssay AID330 (DTP/NCI, 2004).

Each structure is given as a SMILES string. Values joined by “and” are separate entries in the source; they are usually repeats but may differ in a detail not shown here. Identical values can stand only once. Toxic doses and inconclusive results are not listed.

In the test the test system is P388 leukemia ip, CD2F1 mice, survival T/C. The test is described as follows: NCI In Vivo Anticancer Drug Screen. Data for tumor model P388 Leukemia (intraperitoneal) in CD2F1 (CDF1) mice. As to conditions: endpoint: median survival time, higher = longer survival. In outline: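 Mice carrying the transplanted tumor received test compound or vehicle. Survival was recorded in each group, and the value is the treated-group measurement divided by that of the vehicle-treated control group.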

Setting [1] is: dose: 50.0 mg/kg/injection, schedule: Q01DX005 (ip), vehicle: Klucel (hydroxypropylcellulose) (HPC).
Where [2] appears, read: dose: 100.0 mg/kg/injection, schedule: Q01DX005 (ip), vehicle: Klucel (hydroxypropylcellulose) (HPC).
[3] abbreviates: dose: 200.0 mg/kg/injection, schedule: Q01DX005 (ip), vehicle: Klucel (hydroxypropylcellulose) (HPC).
Setting [4] is: dose: 50.0 mg/kg/injection, schedule: Q01DX009 (ip), vehicle: saline with Tween-80.
The mark [5] stands for this setting: dose: 100.0 mg/kg/injection, schedule: Q01DX009 (ip), vehicle: saline with Tween-80.
Where [6] appears, read: dose: 200.0 mg/kg/injection, schedule: Q01DX009 (ip), vehicle: saline with Tween-80.
Where [7] appears, read: dose: 12.5 mg/kg/injection, schedule: Q01DX009 (ip), vehicle: saline with Tween-80.
[8] abbreviates: dose: 25.0 mg/kg/injection, schedule: Q01DX009 (ip), vehicle: saline with Tween-80.
The mark [9] stands for this setting: dose: 60.0 mg/kg/injection, schedule: Q01DX005 (ip), vehicle: saline.
The mark [10] stands for this setting: dose: 50.0 mg/kg/injection, schedule: Q01DX005 (ip), vehicle: saline with Tween-80.
Setting [11] is: dose: 100.0 mg/kg/injection, schedule: Q01DX005 (ip), vehicle: saline with Tween-80.
Setting [12] is: dose: 200.0 mg/kg/injection, schedule: Q01DX005 (ip), vehicle: saline with Tween-80.
The mark [13] stands for this setting: dose: 60.0 mg/kg/injection, schedule: Q01DX005 (ip), vehicle: Klucel (hydroxypropylcellulose) (HPC).
The mark [14] stands for this setting: dose: 120.0 mg/kg/injection, schedule: Q01DX005 (ip), vehicle: Klucel (hydroxypropylcellulose) (HPC).
Setting [15] is: dose: 240.0 mg/kg/injection, schedule: Q01DX005 (ip), vehicle: Klucel (hydroxypropylcellulose) (HPC).

In the case of `CC(C)(C#N)OC(=O)c1cccc(C(=O)OC(C)(C)C#N)c1Sc1ccccc1`, the T/C (dose: 25.0 mg/kg/injection, schedule: Q01DX001 (ip), vehicle: other) is 99 % of control; the T/C (dose: 50.0 mg/kg/injection, schedule: Q01DX001 (ip), vehicle: other) is 105 % of control; the T/C (dose: 100.0 mg/kg/injection, schedule: Q01DX001 (ip), vehicle: other) is 98 % of control and 105 % of control.

In the case of `Cc1ccc(C(=O)CSCC(=O)c2ccc(C)cc2)cc1`, the T/C is 87 % of control under setting [1], 86 % of control under setting [2] and 94 % of control under setting [3].

For `C=CCOC(=O)C1=C(O[Si]C(C)(C)C)CCCC1`, the T/C was 96 % of control under setting [4], 99 % of control under setting [5] and 109 % of control under setting [6].

With `CCN(CC)CC(=O)O[C@]1(CC)C(=O)OCc2c1cc1n(c2=O)Cc2cc3ccccc3nc2-1`, the T/C was 110 % of control (dose: 0.5 mg/kg/injection, schedule: Q01DX005 (ip), vehicle: water); 115 % of control (dose: 1.0 mg/kg/injection, schedule: Q01DX005 (ip), vehicle: water); 115 % of control (dose: 2.0 mg/kg/injection, schedule: Q01DX005 (ip), vehicle: water); 161 % of control and 163 % of control (dose: 8.0 mg/kg/injection, schedule: Q01DX005 (ip), vehicle: water).

As for `Clc1cccc2sc(Nc3c4ccccc4nc4ccccc34)nc12`, the T/C (dose: 12.5 mg/kg/injection, schedule: Q04DX002 (ip), vehicle: distilled water + Tween-80) was 95 % of control; the T/C (dose: 25.0 mg/kg/injection, schedule: Q04DX002 (ip), vehicle: distilled water + Tween-80) is 89 % of control; the T/C (dose: 50.0 mg/kg/injection, schedule: Q04DX002 (ip), vehicle: distilled water + Tween-80) is 95 % of control; the T/C (dose: 100.0 mg/kg/injection, schedule: Q04DX002 (ip), vehicle: distilled water + Tween-80) is 97 % of control; the T/C (dose: 200.0 mg/kg/injection, schedule: Q04DX002 (ip), vehicle: distilled water + Tween-80) was 97 % of control; the T/C (dose: 400.0 mg/kg/injection, schedule: Q04DX002 (ip), vehicle: distilled water + Tween-80) was 97 % of control.

In the case of `O=C1C=CC2(CCC23C=C(Br)C(=O)O3)O1` (stereo not given), the T/C runs as follows: (dose: 5.0 mg/kg/injection, schedule: Q01DX009 (ip), vehicle: Klucel (hydroxypropylcellulose) (HPC)) 102 % of control; (dose: 10.0 mg/kg/injection, schedule: Q01DX009 (ip), vehicle: Klucel (hydroxypropylcellulose) (HPC)) 108 % of control; (dose: 20.0 mg/kg/injection, schedule: Q01DX009 (ip), vehicle: Klucel (hydroxypropylcellulose) (HPC)) 106 % of control.

As for `Clc1cc2c(nn1)Nc1ccccc1S2`, the T/C by setting is: under setting [7], 97 % of control; under setting [8], 96 % of control; under setting [4], 99 % of control and 87 % of control; under setting [5], 98 % of control; under setting [6], 87 % of control.

Regarding `CCN(CC)CCOc1ccccc1/C=C/c1noc2ccccc12`, the T/C runs as follows: (dose: 15.0 mg/kg/injection, schedule: Q01DX005 (ip), vehicle: saline) 94 % of control; (dose: 30.0 mg/kg/injection, schedule: Q01DX005 (ip), vehicle: saline) 91 % of control; under setting [9], 98 % of control.

For `CCOC(=O)C1(C)C(=O)CC(c2ccccc2)CC1c1ccccc1` (stereo not given), the T/C is, setting by setting: under setting [10], 100 % of control; under setting [11], 96 % of control; under setting [12], 99 % of control.

Take `CN(C)CCNc1ccccc1[N+](=O)[O-]`: the T/C was 100 % of control (dose: 12.5 mg/kg/injection, schedule: Q01DX001 (ip), vehicle: saline); 100 % of control (dose: 25.0 mg/kg/injection, schedule: Q01DX001 (ip), vehicle: saline); 100 % of control (dose: 50.0 mg/kg/injection, schedule: Q01DX001 (ip), vehicle: saline).

In the case of `C=C[CH2][Sn]([c]1ccccc1)([c]1ccccc1)[c]1ccccc1`, the T/C was 92 % of control (dose: 6.25 mg/kg/injection, schedule: Q04DX003 (ip), vehicle: saline with Tween-80); 100 % of control (dose: 12.5 mg/kg/injection, schedule: Q04DX003 (ip), vehicle: saline with Tween-80); 101 % of control (dose: 25.0 mg/kg/injection, schedule: Q04DX003 (ip), vehicle: saline with Tween-80).

For the compound `CC1CCCCN1C(=S)Nc1ccc(S(=O)(=O)N2CCCCC2)cc1` (stereo not given), the T/C was 94 % of control (dose: 50.0 mg/kg/injection, schedule: Q01DX009 (ip), vehicle: Klucel (hydroxypropylcellulose) (HPC)); 101 % of control (dose: 100.0 mg/kg/injection, schedule: Q01DX009 (ip), vehicle: Klucel (hydroxypropylcellulose) (HPC)); 92 % of control (dose: 200.0 mg/kg/injection, schedule: Q01DX009 (ip), vehicle: Klucel (hydroxypropylcellulose) (HPC)).

As to `COc1ccc(/C=C/C(C)=N/NC(N)=O)cc1OC`, the T/C was 102 % of control under setting [10], 102 % of control under setting [11] and 106 % of control under setting [12].

Consider `CCc1ncc(C(C)(O)c2ccccc2)n1Cc1ccccc1` (stereo not given), for which the T/C is, setting by setting: under setting [13], 100 % of control; under setting [14], 102 % of control; under setting [15], 99 % of control.

On to `CC(CN(C)C)C(=O)C(=Cc1ccccc1)C(=O)C(C)CN(C)C` (stereo not given), for which the T/C under setting [9] was 100 % of control; the T/C (dose: 120.0 mg/kg/injection, schedule: Q01DX005 (ip), vehicle: saline) was 108 % of control; the T/C (dose: 240.0 mg/kg/injection, schedule: Q01DX005 (ip), vehicle: saline) was 102 % of control.

On to `[N-]=[N+]=Nc1cc(Cl)nnc1-c1ccccc1`, for which the T/C runs as follows: (dose: 15.0 mg/kg/injection, schedule: Q01DX005 (ip), vehicle: Klucel (hydroxypropylcellulose) (HPC)) 107 % of control; (dose: 30.0 mg/kg/injection, schedule: Q01DX005 (ip), vehicle: Klucel (hydroxypropylcellulose) (HPC)) 105 % of control; under setting [13], 100 % of control.

Take `CC1=CC2OC3CC4OC(=O)/C=C/C=C/C(C(C)O)OCC(O)/C(C)=C/C(=O)OCC2(CC1O)C4(C)C31CO1` (stereo not given): the T/C reads like this: (dose: 1.25 mg/kg/injection, schedule: Q01DX005 (ip), vehicle: saline + alcohol) 163 % of control; (dose: 2.5 mg/kg/injection, schedule: Q01DX005 (ip), vehicle: saline + alcohol) 156 % of control and 224 % of control; (dose: 5.0 mg/kg/injection, schedule: Q01DX005 (ip), vehicle: saline + alcohol) 198 % of control and 243 % of control.

Turning to `COc1ccc2c(c1)CC(C)[N+]([O-])=C2C(F)(F)F` (stereo not given), the T/C by setting is: under setting [10], 99 % of control; under setting [11], 102 % of control; under setting [12], 104 % of control.

On to `CC1(C)OC(=O)C(=Cc2ccc(C#N)cc2)C(=O)O1`, for which the T/C was 108 % of control (dose: 60.0 mg/kg/injection, schedule: Q01DX005 (ip), vehicle: saline with Tween-80); 102 % of control (dose: 120.0 mg/kg/injection, schedule: Q01DX005 (ip), vehicle: saline with Tween-80); 111 % of control (dose: 240.0 mg/kg/injection, schedule: Q01DX005 (ip), vehicle: saline with Tween-80).

For `CCC1(c2ccnc3cc(Cl)ccc23)C(=O)NC(=O)NC1=O`, the T/C runs as follows: (dose: 50.0 mg/kg/injection, schedule: Q01DX009 (ip), vehicle: distilled water + alcohol) 100 % of control; (dose: 100.0 mg/kg/injection, schedule: Q01DX009 (ip), vehicle: distilled water + alcohol) 98 % of control; (dose: 200.0 mg/kg/injection, schedule: Q01DX009 (ip), vehicle: distilled water + alcohol) 99 % of control.

On to `C[n+]1ccc(/C=C/c2ccccc2)cc1`, for which the T/C runs as follows: under setting [8], 95 % of control; under setting [4], 90 % of control; under setting [5], 95 % of control; under setting [6], 97 % of control.

Consider `CC(=O)Nc1ccc(S(=O)(=O)Oc2noc3ccc(Br)cc23)cc1`, for which the T/C reads like this: under setting [1], 98 % of control; under setting [2], 97 % of control; under setting [3], 90 % of control.

As for `Cc1ccccc1/C(=C/c1ccc([N+](=O)[O-])cc1)C(=O)O`, the T/C is 108 % of control under setting [13], 108 % of control under setting [14] and 112 % of control under setting [15].

Turning to `O=[N+]([O-])c1c(Sc2ccccc2)ncnc1Sc1ccccc1`, the T/C was 100 % of control under setting [7]; 100 % of control under setting [8]; 91 % of control under setting [4]; 95 % of control (dose: 50.0 mg/kg/injection, schedule: Q01DX009 (ip), vehicle: saline).
